Laboratory results published in patent publication US8518635B2, “Regulation of protein activity by reversible acetylation” (The J. David Gladstone Institutes, priority 2006, dated 2013).
Entries after “also recorded” stand apart in the source; their conditions may differ.

Experiments:
bacterial sirtuins = target: T1, bacterial sirtuins (Escherichia coli, UniProt P75960); experiment: Expression of recombinant human AceCS2 in nicotinamide-treated E. coli, acetyl-lysine immunoblot; format: cell-based
T1 construct: endogenous in cells; host or cells: E. coli DH5alpha (Invitrogen)
Description: E. coli DH5α bacteria (Invitrogen) transformed, e.g., with either pTrcHis2C-SIRT3(102-399), pTrcHis2C-SIRT3-H248Y(102-399), pTrcHis2C-SIRT5(12-310), pTrcHis2C-SIRT5(39-310) or pTrcHis2C-AceCS2(38-689) were grown to an A600 nm=0.4, and induced with 0.5 mM isopropyl-β-D-thiogalactopyranoside (IPTG) at 25° C. for 16 h. 6×His-tagged proteins were purified under native conditions at 4° C. using Ni-NTA agarose (Qiagen, Valencia, Calif.). Purified proteins were dialyzed (e.g., against sirtuin storage buffer […], 4 mM MgCl2, 50 mM NaCl, 0.5 mM DTT, 5% glycerol (v/v) or AceCS2 storage buffer [50 mM Tris-HCl (pH 8.0), 4 mM MgCl2, 10% glycerol (v/v)], adjusted to 0.5 g/L and stored frozen at −80° C. To induce acetylation of recombinant AceCS2, nicotinamide (50 mM) was added during protein expression (16 h, 25° C.).
Immunoblots were developed with enhanced chemiluminescence (Amersham Pharmacia Biosciences) or West SuperSignal reagent (Pierce). Membranes were either nitrocellulose or polyvinylidene fluoride (PVDF) (Immun-Blot; Bio-Rad Laboratories).

AceCS2 = experiment: Acetyl-CoA synthetase activity of purified AceCS2; format: biochemical, human; details: hyperacetylated AceCS2 from nicotinamide-treated E. coli vs untreated
Description: E. coli DH5α bacteria (Invitrogen) transformed, e.g., with either pTrcHis2C-SIRT3(102-399), pTrcHis2C-SIRT3-H248Y(102-399), pTrcHis2C-SIRT5(12-310), pTrcHis2C-SIRT5(39-310) or pTrcHis2C-AceCS2(38-689) were grown to an A600 nm=0.4, and induced with 0.5 mM isopropyl-β-D-thiogalactopyranoside (IPTG) at 25° C. for 16 h. 6×His-tagged proteins were purified under native conditions at 4° C. using Ni-NTA agarose (Qiagen, Valencia, Calif.). […]
The activity of purified AceCS2 was measured as described (Jones & Lipmann, 1955, in Methods in Enzymology (Academic Press, Vol. 1, pp. 585-591; Barak et al., 2004, J Mol Biol 342:383-401). Each reaction (0.5 mL) contained 100 mM hydroxylamine (pre-neutralized with KOH), 50 mM Tris-HCl (pH 8.0), 20 mM potassium acetate, 10 mM MgCl2, 10 mM ATP, 2 mM DTT and 1 mM CoA. All chemicals (Sigma) were of the highest purity available. Reactions were pre-incubated at 35° C. for 5 min before the addition of purified AceCS2 (6 μg). After 30 min of incubation, 0.5 mL stop solution (10% (w/v) FeCl3, 3.3% (w/v) trichloroacetic acid in 2 N HCl) were added and reactions were incubated on ice for 2 min. The samples were centrifuged for 2 min at 16,200×g to remove turbidity and the generated color was measured at 540 nm. […]

T1 sequence (P75960 whole entry): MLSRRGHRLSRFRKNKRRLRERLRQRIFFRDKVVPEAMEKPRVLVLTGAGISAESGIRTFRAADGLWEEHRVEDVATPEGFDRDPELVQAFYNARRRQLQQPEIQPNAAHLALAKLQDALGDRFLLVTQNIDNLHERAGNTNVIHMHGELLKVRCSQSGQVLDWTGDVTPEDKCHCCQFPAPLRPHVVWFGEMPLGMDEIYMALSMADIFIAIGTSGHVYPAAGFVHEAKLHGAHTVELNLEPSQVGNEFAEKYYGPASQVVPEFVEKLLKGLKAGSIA

## NC(=O)c1cccnc1 [nicotinamide]
Bacterial sirtuins; E. coli treated with nicotinamide during expression, AceCS2-K642R
  acetylation of mutant AceCS2 protein carrying an arginine residue in position 642: did not induce acetylation
Bacterial sirtuins; wild-type E. coli treated with nicotinamide (50 mM) during protein expression, 16 h, 25° C., AceCS2 wild type
  acetylation of recombinant human AceCS2 (Lys642): hyperacetylation of recombinant human AceCS2; also recorded: significantly increased its levels of acetylation
AceCS2
  specific activity of AceCS2 purified from bacteria treated or not with nicotinamide: significantly lower specific activity
